Assay results from patent publication US6610883B1, “Compounds having selective activity for retinoid X receptors, and means for modulation of processes mediated by retinoid X receptors” (Ligand Pharmaceuticals, Inc., priority 1992, dated 2003).
Like-named read-outs stand apart in the source and are kept apart here.

Tests used:
[1] = test system: RXR subfamily (RXRα, RXRβ, RXRγ)
Source text: (§1) The co-transfection assay provides a mechanism to evaluate the ability of a compound to modulate the transcription response initiated by an intracellular receptor. […] Berger, et al., J. Steroid Biochem Molec.
Briefly, the co-transfection assay involves the introduction of two plasmids by transient transfection into a retinoid receptor-negative mammalian cell background. The first plasmid contains a retinoid receptor cDNA and directs constitutive expression of the encoded receptor. The second plasmid contains a cDNA that encodes for a readily quantifiable protein, e.g., firefly luciferase or chloramphenicol acetyl transferase (CAT), under control of a promoter containing a retinoid acid response element, which confers retinoid dependence on the transcription of the reporter. In this co-transfection assay, all retinoid receptors respond to all-trans-retinoic acid in a similar fashion. […]
Accordingly, synthetic retinoid compounds of the current invention were evaluated for their interaction with retinoid receptor subtypes using the co-transfection assay in which CV-1 cells were co-transfected with one of the retinoid receptor subtypes, a reporter construct, and an internal control to allow normalization of the response for transfection efficiency. […]

HL60 cells [2] = assay: HL60 differentiation (NBT reduction); assay type: cell-based; conditions: for EC50: Homo sapiens
[3] = test system: RAR subfamily (RARα, RARβ, RARγ); assay: Co-transfection assay, dose response profiles, RAR subfamily; assay type: cell-based; conditions: in words
Source text: as §1
(§2) Briefly, the co-transfection assay involves the introduction of two plasmids by transient transfection into a retinoid receptor-negative mammalian cell background. The first plasmid contains a retinoid receptor cDNA and directs constitutive expression of the encoded receptor. The second plasmid contains a cDNA that encodes for a readily quantifiable protein, e.g., firefly luciferase or chloramphenicol acetyl transferase (CAT), under control of a promoter containing a retinoid acid response element, which confers retinoid dependence on the transcription of the reporter. In this co-transfection assay, all retinoid receptors respond to all-trans-retinoic acid in a similar fashion. This assay can be used to accurately measure efficacy and potency of retinoic acid and synthetic retinoids as ligands that interact with the individual retinoid receptor subtypes.
(§3) Accordingly, synthetic retinoid compounds of the current invention were evaluated for their interaction with retinoid receptor subtypes using the co-transfection assay in which CV-1 cells were co-transfected with one of the retinoid receptor subtypes, a reporter construct, and an internal control to allow normalization of the response for transfection efficiency. The following example is illustrative.
Co-transfection Assay In CV-1 Cells: A monkey kidney cell line, CV-1, was used in the cis-trans assay. Cells were transfected with two plasmids. […] The cis-vector contains an easily assayable gene product, in this case the firefly luciferase, coupled to a retinoid-responsive promoter, i.e., an RARE or RXRE. Addition of retinoic acid or an appropriate synthetic retinoid results in the formation of a retinoid-RAR or -RXR complex that activates the expression of luciferase gene, causing light to be emitted from cell extracts. […]

HL60 cells [4] = test system: HL60 cells
RXRγ = molecular target: T1, RXRγ (Mus musculus, UniProt P28705); assay: Co-transfection (cis-trans) assay in CV-1 cells, RXRγ; assay type: cell-based
T1 construct: expressed in transfected cells; host or cells: CV-1 (monkey kidney)
T1 sequence (P28705 1-463): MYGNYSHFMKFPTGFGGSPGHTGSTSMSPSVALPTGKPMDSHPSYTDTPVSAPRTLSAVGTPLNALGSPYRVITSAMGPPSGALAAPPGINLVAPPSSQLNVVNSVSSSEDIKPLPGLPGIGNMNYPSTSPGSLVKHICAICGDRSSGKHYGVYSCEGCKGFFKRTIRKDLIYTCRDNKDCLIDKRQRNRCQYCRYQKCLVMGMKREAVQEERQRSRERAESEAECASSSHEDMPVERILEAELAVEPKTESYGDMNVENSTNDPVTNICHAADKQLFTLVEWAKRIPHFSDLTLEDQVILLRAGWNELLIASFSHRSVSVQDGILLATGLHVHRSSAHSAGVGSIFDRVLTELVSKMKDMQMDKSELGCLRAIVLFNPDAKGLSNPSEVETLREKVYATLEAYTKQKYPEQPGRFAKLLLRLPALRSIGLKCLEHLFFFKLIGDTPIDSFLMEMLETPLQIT
Source text: as §1, §2, §3
(§4) Retinoids: All-tans-retinoic acid (RA) and 13-cis-retinoic acid (13-cis-RA) were obtained from Sigma. […] Retinoids were dissolved in dimethylsulfoxide for use in the transcriptional activation assays.
(§5) Co-transfection Assay In CV-1 Cells: A monkey kidney cell line, CV-1, was used in the cis-trans assay. Cells were transfected with two plasmids. […] The cis-vector contains an easily assayable gene product, in this case the firefly luciferase, coupled to a retinoid-responsive promoter, i.e., an RARE or RXRE. Addition of retinoic acid or an appropriate synthetic retinoid results in the formation of a retinoid-RAR or -RXR complex that activates the expression of luciferase gene, causing light to be emitted from cell extracts. The level of luciferase activity is directly proportional to the effectiveness of the retinoid-receptor complex in activating gene expression. This sensitive and reproducible co-transfection approach permits the identification of retinoids that interact with the different receptor isoforms.
(§6) Cells were cultured in DMEM supplemented with 10% charcoal resin-stripped fetal bovine serum, and experiments were conducted in 96-well plates. […] Cells were transfected for 6 h and then washed to remove the precipitate. The cells were then incubated for 36 h with or without retinoid. After the transfection, all subsequent steps were performed on a Beckman Biomek Automated Workstation. […] All determinations were performed in triplicate in two independent experiments and were normalized for transfection efficiency by using β-galactosidase as the internal control. […] Efficacy values less than 5% are not statistically different than the 0% background.

RXRα = molecular target: T2, RXRα (Homo sapiens, UniProt P19793); assay: Co-transfection (cis-trans) assay in CV-1 cells, RXRα; assay type: cell-based; parameters: Emax: dose or concentration left out as unconfirmed
T2 construct: The first plasmid contains a retinoid receptor cDNA and directs constitutive expression of the encoded receptor; expressed in transfected cells; host or cells: CV-1 (monkey kidney)
T2 sequence (P19793 1-462): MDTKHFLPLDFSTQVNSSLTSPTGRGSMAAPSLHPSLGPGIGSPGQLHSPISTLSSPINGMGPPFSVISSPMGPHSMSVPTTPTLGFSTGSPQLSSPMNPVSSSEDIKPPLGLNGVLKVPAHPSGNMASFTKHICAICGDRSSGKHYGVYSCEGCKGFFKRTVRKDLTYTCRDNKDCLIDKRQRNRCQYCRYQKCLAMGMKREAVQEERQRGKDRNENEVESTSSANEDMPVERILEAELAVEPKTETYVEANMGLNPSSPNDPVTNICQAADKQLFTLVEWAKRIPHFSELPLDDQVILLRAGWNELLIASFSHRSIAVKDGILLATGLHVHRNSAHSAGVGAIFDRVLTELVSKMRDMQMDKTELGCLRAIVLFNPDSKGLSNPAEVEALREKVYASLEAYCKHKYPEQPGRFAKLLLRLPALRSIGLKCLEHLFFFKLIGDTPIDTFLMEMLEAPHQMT
Source text: as §1, §2, §3, §4, §5, §6

[5] = test system: myeloma cell line (RPMI 8226); assay: Thymidine incorporation in myeloma cell line RPMI 8226; assay type: cell-based
Source text: This assay examines the incorporation of radiolabeled thymidine into DNA, and by determining the ability of a compound to inhibit thymidine incorporation into DNA, provides a measure of cell proliferation.

RXRβ = molecular target: T3, RXRβ (Mus musculus, UniProt P28704); assay: Co-transfection (cis-trans) assay in CV-1 cells, RXRβ; assay type: cell-based; conditions: RXRβ
T3 construct: expressed in transfected cells; host or cells: CV-1 (monkey kidney)
T3 sequence (P28704 1-520): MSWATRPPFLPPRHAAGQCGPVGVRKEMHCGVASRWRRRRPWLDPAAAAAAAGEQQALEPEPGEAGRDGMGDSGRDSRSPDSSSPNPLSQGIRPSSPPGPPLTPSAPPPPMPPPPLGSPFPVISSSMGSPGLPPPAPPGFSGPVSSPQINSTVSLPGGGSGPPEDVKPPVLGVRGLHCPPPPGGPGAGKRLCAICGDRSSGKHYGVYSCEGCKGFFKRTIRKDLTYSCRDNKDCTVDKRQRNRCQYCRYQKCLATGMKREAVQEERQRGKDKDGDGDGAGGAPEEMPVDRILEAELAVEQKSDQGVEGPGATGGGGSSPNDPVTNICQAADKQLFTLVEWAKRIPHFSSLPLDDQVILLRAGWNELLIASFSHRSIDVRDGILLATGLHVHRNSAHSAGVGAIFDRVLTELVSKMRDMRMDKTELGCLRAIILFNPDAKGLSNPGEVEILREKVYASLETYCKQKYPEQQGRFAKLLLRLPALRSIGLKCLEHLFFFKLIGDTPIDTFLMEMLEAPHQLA
Source text: as §1, §2, §3, §4, §5, §6

[6] = test system: RPMI18226, a multiple myeloma; assay: Cell growth of RPMI18226; assay type: cell-based, human; conditions: RPMI18226, cell number and growth in semi-solid medium
Source text: (§7) The effects on growth of these cells were monitored by evaluation of cell number, and also by evaluation of growth in semi-solid medium for the RPMI18226 cell line. […] The therapeutic index is defined as the ratio of efficacy to toxicity of a compound.

[7] = rats
Procedure: Male Sprague-Dawley rats (160-200 gram) were obtained from Harlan. Animals were fed standard laboratory diets (Harlan/Teklad) and kept in an environmentally controlled animal house with a light period lasting from 6 a.m. to 6 p.m. Animals were treated with drugs prepared as suspensions in olive oil.
[…]
Plasma total cholesterol was measured enzymatically utilizing Boeringer Mannheim Diagnostics High Performance Cholesterol Methods with an ABBOTT VP Bichromatic Analyzer. cholesterol was measured after preparation of the HDL-containing fraction by heparin-manganese precipitation of plasma. HDL-cholesterol in this fraction was estimated as mentioned earlier. All HDL separations were checked for contamination by other lipoproteins with agarose gel electrophoresis.

RXRα/PPAR = assay: Co-transfection of RXRα and PPAR in HepG2 cells; assay type: cell-based
Source text: Specifically, peroxisome proliferator-activated receptor (PPAR) is a member of the intracellular receptor super family that plays a role in the modulation of lipid homeostasis. […] These agents, called peroxisome proliferators, have been used in man as hypolipidemic agents.

[8] = test system: transglutaminase activity in the HL60 cells; assay: Transglutaminase induction in HL60 cells
apoA1 = assay: Circulating apoA1 in rats (Western Blot); conditions: 3 mg/kg orally, daily for four days
Source text: Serum samples were taken and analyzed by Western Blot using antisera specific to rat apoA1.

[9] = test system: ME180, a squamous cell carcinoma; assay: Cell growth of ME180; assay type: cell-based, human; conditions: ME180, cell number
Source text: as §7

For `CC1=C(/C=C/C(C)=C/C=C/C(C)=C/C(=O)O)C(C)(C)CCC1` [all-trans-retinoic acid], the “Activation of members of the RXR subfamily” value [1] was “activate members of both the RAR and RXR subfamilies”, the EC50 (HL60 cells [2]; HL-60, HL60, NBT reduction, read-out: EC50 for mediated differentiation) was 2 µM and the “Activation of members of the RAR subfamily” value [3] was “activate members of both the RAR and RXR subfamilies”. The “Effect on cellular proliferation (thymidine incorporation)” value (HL60 cells [4]) was “inhibits thymidine incorporation”.
With `C/C(=C\c1ccc(C(=O)O)cc1)c1ccc2c(c1)C(C)(C)CCC2(C)C` [TTNPB, reference compound] the EC50 (RXRγ) was > 10 µM, the Emax at 10 µM (RXRγ; CV-1, RXRγ, maximal response relative to all-trans-retinoic acid at 10^−5 M, read-out: Efficacy) was < 5% and the Emax (RXRα; CV-1, read-out: Efficacy) was < 5%. The EC50 (RXRα; RXRα, CV-1 cells, luciferase reporter, 36 h, read-out: Potency) was > 10 µM, the inhibition at 10 pM ([5]; Homo sapiens, RPMI-8226) was 9% and the IC50 ([5]; Homo sapiens, RPMI 8226, FIG. 11, read-out: IC50, inhibition of thymidine incorporation) was ~0.05 nM. For the same molecule, the “Concentration with essentially no effect on cell proliferation” value ([5]; RPMI 8226, FIG. 11) was “less than 10^−11 M”, the Emax at 10 µM (RXRβ; CV-1, maximal response relative to all-trans-retinoic acid at 10^−5 M, read-out: Efficacy) was < 5% and the EC50 (RXRβ; CV-1 cells, luciferase reporter, 36 h, read-out: Potency) was > 10 µM.
With `C=C(c1ccc(C(=O)O)cc1)c1cc2c(cc1C)C(C)(C)CCC2(C)C` [3-methyl-TTNEB, 4-[1-(3,5,5,8,8-pentamethyl-5,6,7,8-tetrahydro-2-naphthyl)ethenyl]benzoic acid] the “Effect on cell growth” value [6] was “inhibit cell growth in a concentration-dependent manner”, the HDL levels ([7]; 100 mg/kg i.p., 4 days) was “substantial and statistically significant increases in HDL levels” and the “Development of tolerance to pharmacological action” value ([7]; 30 day p.o. study, 10, 30, or 100 mg/kg) was “did not indicate development of tolerance”. For the same molecule, the Total cholesterol ([7]; four days) was “showed an increase due to the increase of the HDL-cholesterol fraction”, the Triglycerides ([7]; four days) was “either no change or a slight decrease” and the “Lowest dose with significant increase of HDL-cholesterol” value ([7]; i.p., four days) was 0.3 mg/kg. The “Increase of plasma HDL-cholesterol” value ([7]; optimally efficacious dose) was “greater than 60%”, the “Induction of differentiation (NBT reduction)” value (HL60 cells [2]; HL60) was “not to induce undue differentiation” and the EC50 (HL60 cells [2]; HL-60, read-out: EC50 for mediated differentiation) was > 1000 µM. For the same molecule, the “Normalized Response (%)” value (RXRα/PPAR) was 90%, the “Induction of transglutaminase activity” value [8] was “induce transglutaminase activity in the HL60 cells” and the “Circulating apoA1 level” value (apoA1) was “significant increase in circulating apoA1 level”. For the same molecule, the “Effect on cell growth” value [9] was “inhibit cell growth in a concentration-dependent manner”.
